Reference: patent US12152031B2, “Biodefense agents” (priority 2018, dated 2024)
In brackets after ≈: the same amount, converted by molar mass.

Assays:
Experiment in all cases: microbe, parasite or virus in culture
Format in all cases: cell-based
[1] = test system: Bacillus anthracis; details: for MIC: read-out: MIC range
[2] = test system: Yersinia pestis; details: for MIC: read-out: MIC range
[3] = test system: Francisella tularensis; details: for MIC: read-out: MIC range
[4] = test system: Burkholderia mallei; details: for MIC: read-out: MIC range
[5] = test system: Burkholderia pseudomallei; details: for MIC50 / MIC90 / MIC: Burkholderia pseudomallei; for MIC: read-out: MIC range

Compound	MIC50 [1] [µg/mL]	MIC90 [1] [µg/mL]	MIC [1] [µg/mL]	MIC50 [2] [µg/mL]	MIC90 [2] [µg/mL]	MIC [2] [µg/mL]	MIC50 [3] [µg/mL]	MIC90 [3] [µg/mL]	MIC [3] [µg/mL]	MIC50 [4] [µg/mL]	MIC90 [4] [µg/mL]	MIC [4] [µg/mL]	MIC50 [5] [µg/mL]	MIC90 [5] [µg/mL]	MIC [5] [µg/mL]	MIC range [5] [µg/mL]
CC(=N)NCC[C@@H]1CCC[C@@H](c2ccc(-n3cc4cc(-c5cc(CCC[C@H](C)N)cc(Cl)c5F)[nH]c4nc3=O)cc2C)N1 [RX-D8]	≤ 0.008	≤ 0.008	0.008 to 0.015 (≈ 0.0132 to 0.0247 µM)	0.25 (≈ 0.412 µM)	0.5 (≈ 0.825 µM)	0.06 to 0.5 (≈ 0.099 to 0.825 µM)	0.03 (≈ 0.0495 µM)	0.06 (≈ 0.099 µM)	0.004 to 0.12 (≈ 0.0066 to 0.198 µM)	0.06 (≈ 0.099 µM)	0.12 (≈ 0.198 µM)	0.03 to 0.25 (≈ 0.0495 to 0.412 µM)	8 (≈ 13.2 µM)	> 8		
C[C@H](N)CCCc1cc(Cl)c(F)c(-c2cc3cn(-c4ccc([C@@H]5CCC[C@@H](CCSC(=N)N)N5)c(F)c4)c(=O)nc3[nH]2)c1 [RX-D11]	0.12 (≈ 0.191 µM)	0.25 (≈ 0.398 µM)	0.008 to 0.5 (≈ 0.0127 to 0.796 µM)	0.12 (≈ 0.191 µM)	0.25 (≈ 0.398 µM)	0.004 to 0.25 (≈ 0.00637 to 0.398 µM)	0.06 (≈ 0.0955 µM)	0.12 (≈ 0.191 µM)	0.008 to 1 (≈ 0.0127 to 1.59 µM)	0.06 (≈ 0.0955 µM)	0.12 (≈ 0.191 µM)	0.03 to 0.25 (≈ 0.0478 to 0.398 µM)	1 (≈ 1.59 µM)	2 (≈ 3.18 µM)	0.25 to 8 (≈ 0.398 to 12.7 µM)	
CSc1cc(-n2cc3cc(-c4cc(CCC[C@@H](N)C5CC5)cc(Cl)c4F)[nH]c3nc2=O)ccc1[C@@H]1CCC[C@@H](CCNC(C)=N)N1 [RX-D1]	0.06 (≈ 0.0903 µM)	0.06 (≈ 0.0903 µM)	0.008 to 0.12 (≈ 0.012 to 0.181 µM)	0.12 (≈ 0.181 µM)	0.25 (≈ 0.376 µM)	0.008 to 0.25 (≈ 0.012 to 0.376 µM)	0.12 (≈ 0.181 µM)	0.25 (≈ 0.376 µM)	0.06 to 0.5 (≈ 0.0903 to 0.753 µM)	0.12 (≈ 0.181 µM)	0.12 (≈ 0.181 µM)	0.06 to 0.25 (≈ 0.0903 to 0.376 µM)	1 (≈ 1.51 µM)	4 (≈ 6.02 µM)	0.5 to 4 (≈ 0.753 to 6.02 µM)	
CCCN1[C@H](CCNC(C)=N)CCC[C@H]1c1ccc(-n2cc3cc(-c4cc(CCC[C@H](C)N)cc(Cl)c4F)[nH]c3nc2=O)cc1 [RX-D5]	0.06 (≈ 0.0946 µM)	0.06 (≈ 0.0946 µM)	0.015 to 0.12 (≈ 0.0237 to 0.189 µM)	0.12 (≈ 0.189 µM)	0.25 (≈ 0.394 µM)	0.03 to 0.5 (≈ 0.0473 to 0.788 µM)	0.06 (≈ 0.0946 µM)	0.12 (≈ 0.189 µM)	0.004 to 1 (≈ 0.00631 to 1.58 µM)	0.06 (≈ 0.0946 µM)	0.12 (≈ 0.189 µM)	0.03 to 0.12 (≈ 0.0473 to 0.189 µM)	4 (≈ 6.31 µM)	8 (≈ 12.6 µM)		
CC(=N)NCC[C@@H]1CCC[C@@H](c2ccc(-n3cc4cc(-c5cc(CCC[C@H](C)N)cc(Cl)c5F)[nH]c4nc3=O)cc2)N1CCCO [RX-D2]	0.06 (≈ 0.0923 µM)	0.12 (≈ 0.185 µM)	0.03 to 0.12 (≈ 0.0461 to 0.185 µM)	0.25 (≈ 0.384 µM)	1 (≈ 1.54 µM)	0.03 to 1 (≈ 0.0461 to 1.54 µM)	0.12 (≈ 0.185 µM)	0.25 (≈ 0.384 µM)	0.015 to 1 (≈ 0.0231 to 1.54 µM)	0.12 (≈ 0.185 µM)	0.25 (≈ 0.384 µM)	0.06 to 0.5 (≈ 0.0923 to 0.769 µM)	> 8	> 8		
CC(C)(O/N=C(\C(=O)N[C@@H]1C(=O)N2C(C(=O)[O-])=C(C[n+]3ccccc3)CS[C@H]12)c1csc(N)n1)C(=O)O [Ceftazidime, ceftazidime, reference compound]													1 (≈ 1.83 µM)	1 (≈ 1.83 µM)		≤0.03 to 32
C[C@H](N)CCCc1cc(Cl)c(F)c(-c2cc3cn(-c4ccc([C@@H]5CCC[C@@H](CCNC(=N)CN)N5)cc4)c(=O)nc3[nH]2)c1 [RX-D6]	0.12 (≈ 0.198 µM)	0.25 (≈ 0.412 µM)	0.06 to 0.25 (≈ 0.0988 to 0.412 µM)	0.5 (≈ 0.823 µM)	1 (≈ 1.65 µM)	0.015 to 1 (≈ 0.0247 to 1.65 µM)	0.06 (≈ 0.0988 µM)	0.25 (≈ 0.412 µM)	0.03 to 0.5 (≈ 0.0494 to 0.823 µM)	0.12 (≈ 0.198 µM)	0.25 (≈ 0.412 µM)	0.12 to 0.25 (≈ 0.198 to 0.412 µM)	> 8	> 8		
CC(=N)NCC[C@@H]1CSC[C@@H](c2ccc(-n3cc4cc(-c5cc(CCC[C@H](C)N)cc(Cl)c5F)[nH]c4nc3=O)cc2)N1 [RX-D9]	0.06 (≈ 0.0983 µM)	0.12 (≈ 0.197 µM)	0.008 to 0.12 (≈ 0.0131 to 0.197 µM)	0.12 (≈ 0.197 µM)	0.25 (≈ 0.41 µM)	0.06 to 0.5 (≈ 0.0983 to 0.819 µM)	0.12 (≈ 0.197 µM)	0.25 (≈ 0.41 µM)	0.03 to 2 (≈ 0.0492 to 3.28 µM)	0.12 (≈ 0.197 µM)	0.25 (≈ 0.41 µM)	0.03 to 0.5 (≈ 0.0492 to 0.819 µM)	2 (≈ 3.28 µM)	4 (≈ 6.56 µM)	0.5 to 4 (≈ 0.819 to 6.56 µM)	
